Measured values: patent publication US11497793B2, “Compositions and methods for treating glioblastoma” (TEL HASHOMER MEDICAL RESEARCH INFRASTRUCTURE AND SERVICES …, priority 2018, dated 2022)
The star is where a group is joined. Tos = Cc1ccc(S(=O)(=O)*)cc1; CH2Cl = ClC*

Columns and labels:
CNS-1 brain tumor = test: Survival in an animal model of GBM (CNS-1 cells injected into parietal cortex, intratumoral osmotic pump); type: in vivo; details: rat GBM model; osmotic pump into tumor for 14 days; TMZ 2 mg/rat, SIXAC 6.9 μg/rat (20 μg/kg/day); monitored until Day 25
Protocol: CNS-1 cells ([…]) were injected using stereotactic methods into the parietal cortex of rats (n=20, 16 rats survived the surgery).
Five days later (Day 5) the brains of the rats that survived the surgery were examined by MRI and the tumors scored on a scale of 1-3. For each rat, a catheter was placed in the brain tumor and attached to an osmotic pump (Alzet®) releasing one of the following treatments ([…], for 14 days): TMZ 2 mg/rat (n=7), or TMZ 2 mg/rat and SIXAC 6.9 μg/rat (20 μg/kg/day) (n=7) (TMZ was dissolved in saline and 0.1M acetate buffer pH5) (50:50 v/v ratio).
The groups were monitored daily for survival until Day 25.

CNS-1 glioma cell line = test: Glioma cell proliferation measured by XTT; type: cell-based, rat; details: CNS-1 cells, 72 hours, TMZ 500 μM, SIXAC 10 μM, alone or combined
Protocol: The following experiment tested the effect of the chemotherapeutic drug temozolomide (“TMZ”) in combination with the peptide conjugate Tosyl-ATLDPR-chloromethylketone (tosyl-SEQ ID NO: 3-CMK) on the proliferation of glioma cells. The peptide conjugate contains 6 amino acids from the N-terminus of PAR-1: ATLDPR (SEQ ID NO: 3), and is denoted herein as “SIXAC”.
In particular, CNS-1 glioma cell line (rat) was treated with either TMZ (500 μM), SIXAC (10 μM) or a combination of TMZ (500 μM) and SIXAC (10 μM) for 72 hours. Proliferation was measured by means of XTT in comparison to non-treated cells (control).

C6 rat glioma cells = test: Scratch (wound healing) assay of glioma cell migration; type: cell-based; details: 4 h of incubation, SIXAC 1 μM, TMZ 100 μM, alone or combined
Protocol: C6 rat glioma cells were grown in Dulbecco's modified Eagle's medium (DMEM; Bet Haemek, Biological Industries, Israel) supplemented with 10% fetal bovine serum (Bet Haemek, Biological Industries, Israel) and 1% penicillin and streptomycin in a 5% CO2-humidified atmosphere.
The effect of TMZ and SIXAC on the coordinated movement of C6 glioma cells was evaluated using a wound healing assay. The cells were seeded in 24-well plates at a density of 5×10^4 cells/well. Cells were cultured in FCS-free medium for 24 h. A wound was established by scraping using 10 μl pipette tip. Cells were washed twice with warm PBS and then fresh FCS-free medium was added, containing SIXAC (1 μM), TMZ (100 μM) or a combination of SIXAC and TMZ. Wells with FCS-free medium only or FCS-free medium+DMSO 0.2% were used as controls (marked as “control” and “control+DMSO”) Image acquisition of wound gap closure (%) was carried out following 4 h of incubation using a Nikon Eclipse microscope Images were analyzed using Fiji software.

[1] = system: phosphorylated extracellular signal-regulated kinase (pERK); test: Western blot of pERK level in glioma cells; type: cell-based, rat; details: CNS-1 cells, 24 h; TMZ 500 μM, SIXAC 10 μM, alone or combined; vs FCS-free medium with 0.2% DMSO
Protocol: (§1) More particularly, the expression of two proteins, PAR-1 and phosphorylated extracellular signal-regulated kinase (pERK), was examined in glioma cells incubated with TMZ, SIXAC or a combination of TMZ+SIXAC.
(§2) CNS-1 rat glioma cells were grown in Dulbecco's modified Eagle's medium (DMEM; Bet Haemek, Biological Industries, Israel) supplemented with 10% fetal bovine serum (Bet Haemek, Biological Industries, Israel) and 1% penicillin and streptomycin in a 5% CO2-humidified atmosphere.
(§3) CNS-1 cells were seeded and incubated for 24 h. Then the medium was replaced by FCS-free medium for additional 24 h. Next, the cells were treated for 24 h with SIXAC (10 μM), TMZ (500 μM), a combination of TMZ (500 μM) and SIXAC (10 μM) or a FCS-free medium (containing 0.2% DMSO) which was used as a control (n=4 for each treatment group). The cells were then washed with ice-cold PBS and lysed in RIPA buffer (containing in mM: 50 TRIS HCl pH 8, 150 NaCl, 1% NP-40, 0.5% sodium deoxycholate, and 0.1% SDS), a protease inhibitor cocktail (Merck Millipore 539134, 1:100), 0.1 mM sodium orthovanadate and 2 mM PMSF. The cells were scraped, collected and centrifuged (16,000 g×20 min) at 4° C. The supernatants were collected, and protein concentration was determined by means of a bicinchoninic acid (BCA) assay.

PAR-1 = test: Western blot of PAR-1 level in glioma cells; type: cell-based, rat; details: CNS-1 cells, 24 h; TMZ 500 μM, SIXAC 10 μM, alone or combined; vs FCS-free medium with 0.2% DMSO
Protocol: as §1, §2, §3

Molecule	Median survival (CNS-1 brain tumor) [days]	cell proliferation compared to non-treated cells (control) (CNS-1 glioma cell line)	wound-closure percentage (C6 rat glioma cells)	pERK expression [1]	PAR1 expression (PAR-1)
Cn1nnc2c(C(N)=O)ncn2c1=O [TMZ, temozolomide, reference compound]	14	no significant effect			
tosyl-Ala-Thr-Leu-Asp-Pro-Arg-chloromethylketone (Tos-ATLDPR-CH2Cl; SMILES Cc1ccc(S(=O)(=O)N[C@@H](C)C(=O)N[C@H](C(=O)N[C@@H](CC(C)C)C(=O)N[C@@H](CC(=O)O)C(=O)N2CCC[C@H]2C(=O)N[C@@H](CCCNC(=N)N)C(=O)CCl)[C@@H](C)O)cc1) [SIXAC, peptide conjugate containing 6 amino acids from the N-terminus of PAR-1 with tosyl and chloromethylketone moieties]		minor effect	significantly decrease	did not cause any significant change	did not cause any significant change
